{"source": "paper PMC10101059", "about": "“Rational Design of Stapled Antimicrobial Peptides to Enhance Stability and In Vivo Potency against Polymicrobial Sepsis” (Microbiology Spectrum, 2023)", "key": {"Acinetobacter baumannii": {"system": "Acinetobacter baumannii", "test": "microbe, parasite or virus in culture", "type": "cell-based", "settings": "for MBC: read-out: MBC; for MIC: read-out: MIC", "procedure": "The antimicrobial assay was performed according to a modified National Committee for Clinical Laboratory Standards (NCCLS) protocol ([41], [42]). Briefly, 5 × 10^5 CFU/mL bacterial cells were treated with various peptide concentrations and incubated at 37 ± 2°C for 16 to 20 h. The lowest concentration with clear wells was recorded as the MIC for each test molecule. The clear wells were further plated in Mueller-Hinton agar (MHA) plates, followed by incubation overnight at 37 ± 2°C. After plating, the lowest concentration at which no growth was observed was recorded as the MBC. For the serum sensitivity assay, the antimicrobial activity of the peptides was tested in medium containing 50% human serum ([43], [44]). The antimicrobial assay was performed in the presence of physiological ions and glucose. The test media were supplemented with MgCl2 (1 mM), CaCl2 (2 mM), NaCl (150 mM), KCl (4.5 mM), NH4Cl (6 μM) ([45], [46]), or glucose (0.2%) ([47]), followed by routine antimicrobial assay as described previously. For the pH sensitivity assay, the antimicrobial assay was performed in media adjusted to pH values ranging from 4 to 12. To estimate the effects of temperature on antimicrobial activity, the peptide was incubated for 1 h at temperatures ranging from 40 to 100°C ([48]), followed by the antimicrobial assay as described above."}, "E. aerogenes": {"system": "E. aerogenes", "test": "microbe, parasite or virus in culture", "type": "cell-based, Enterobacter aerogenes", "settings": "for MIC: read-out: Single drug treatment MIC; for TP4-3 and meropenem combined MIC: MIC of each agent in combination"}, "NDM1 K. pneumoniae": {"system": "NDM1 K. pneumoniae", "test": "microbe, parasite or virus in culture", "type": "cell-based, Klebsiella pneumoniae", "settings": "for MIC: read-out: Single drug treatment MIC; for TP4-3 and meropenem combined MIC: MIC of each agent in combination"}, "Salmonella enterica": {"system": "Salmonella enterica", "test": "microbe, parasite or virus in culture", "type": "cell-based", "settings": "Salmonella enterica; MHB medium", "procedure,_shortened": "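Broth microdilution per modified NCCLS protocol: 5 × 10^5 CFU/mL bacteria exposed to serial peptide concentrations, 37 ± 2°C for 16 to 20 h. MIC = lowest concentration giving clear wells; clear wells plated on Mueller-Hinton agar overnight at 37 ± 2°C, MBC = lowest concentration with no growth. Serum sensitivity tested in medium with 50% human serum.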"}, "A. baumannii [1]": {"system": "A. baumannii", "test": "Serial passage (induced resistance) assay", "type": "cell-based, Acinetobacter baumannii", "settings": "after serial passage for 15 cycles", "procedure": "The experimental procedure was performed according to the MIC protocol for A. baumannii described above. Subsequently, bacterial samples from sub-MIC wells were passaged, and the MIC was estimated again. This process was repeated for 15 cycles, and the change in MIC over […] was reported ([23])."}, "[2]": {"system": "human keratinocyte (HaCaT)", "test": "alamarBlue cytotoxicity assay", "type": "cell-based", "settings": "at 3.13 μM, 24 h", "procedure": "(§1) (i) Cell culture. Human skin keratinocytes (HaCaT), human kidney (HK-2), and RAW 264.7 macrophage cells were obtained from the Bioresource Collection and Research Center (BCRC, Hsinchu, Taiwan). HaCaT and […] macrophage cells were cultured in Dulbecco’s modified Eagle’s medium (DMEM, Thermo Fischer, MA, USA.) supplemented with 10% FBS, penicillin (100 U/mL), and streptomycin (100 μg/mL) at 37°C under 5% CO2. HK-2 cells were cultured in glucose-free Keratinocyte serum-free medium (K-SFM) supplemented with 0.05 mg/mL bovine pituitary extract (BPE), 5 ng/mL EGF, 100 U/mL penicillin, and […] streptomycin at 37°C in 5% CO2 ([49]).\n(§2) In vitro toxicity assay. The cytotoxicity of TP4-3 was evaluated by an alamarBlue assay. HaCaT, HK-2, and RAW 264.7 macrophage cells were seeded at densities of 1 × 10^4 cells/well in 96-well cell plates and treated with the indicated concentrations of TP4 and TP4-3 for 24 h (0.78 to 100 μM). Cells treated with 0.1% Triton X-100 and culture medium served as negative and positive-control groups, respectively. After incubation, the cells were washed and incubated for 2 h at 37°C with 90 μL Dulbecco’s modified Eagle medium (DMEM) containing 10 μL alamarBlue reagent. Fluorescence was recorded using a Spectra Max i3 Multi-Mode detection platform (Molecular Devices, San Jose, CA) to measure cell viability ([50], [51])."}, "[3]": {"system": "murine macrophage (RAW 264.7)", "test": "alamarBlue cytotoxicity assay", "type": "cell-based", "settings": "at 12.5 μM, 24 h", "procedure": "as §1, §2"}, "human kidney cell (HK-2)": {"system": "human kidney cell (HK-2)", "test": "alamarBlue cytotoxicity assay", "type": "cell-based", "settings": "at 3.13 μM, 24 h", "procedure": "as §1, §2"}, "A. baumannii [4]": {"system": "A. baumannii", "test": "SEM and TEM analysis", "type": "cell-based, Acinetobacter baumannii", "settings": "1× MIC", "procedure": "The treated suspension was washed twice with 10 mM PBS (pH 7.4) followed by treatment with 4% glutaraldehyde. Next, the suspension was incubated for 30 min at 4°C. Following the incubation, the treated suspension was centrifuged (5,000 × g, 10 min), and the pellet was placed on a glass slide and allowed to attach for 30 min. The glass slide was then subjected to gradient ethanol washing from 0% to 100% ethanol. Finally, the glass slides were dried and coated with gold for imaging ([55]). For TEM, glutaraldehyde samples were cryoimmobilized and subjected to TEM imaging ([58], [59])."}, "[5]": {"settings": "24 h pre-incubation in 50% human serum"}, "[6]": {"settings": "Acinetobacter baumannii, 1 h, agent pre-exposed to 40°C for 1 h"}, "[7]": {"settings": "Acinetobacter baumannii, 1 h, agent pre-exposed to 60°C for 1 h"}, "[8]": {"settings": "Acinetobacter baumannii, 1 h, agent pre-exposed to 80°C for 1 h"}, "[9]": {"settings": "Acinetobacter baumannii, preincubation in 50% human serum 2 h"}, "[10]": {"settings": "Acinetobacter baumannii, preincubation in 50% human serum 6 h"}, "[11]": {"settings": "Acinetobacter baumannii, preincubation in 50% human serum 12 h"}, "[12]": {"settings": "Acinetobacter baumannii, preincubation in 50% human serum 24 h"}}, "note": "Where two headings read alike, the source gives them in different places. Bridge positions count the residues as written; N and C are the ends. Square brackets hold non-standard residues; d marks the D form. Peptide text beside a SMILES is read from it. R5 = C=CCCC[C@@](C)(N)C(=O)O", "data": [{"smiles": "C[C@@H](O)[C@H]1C(=O)N2C(C(=O)O)=C(S[C@@H]3CN[C@H](C(=O)N(C)C)C3)[C@H](C)[C@H]12", "note": "[Meropenem]", "values": [{"measurement": "reduction of activity", "setting": "Acinetobacter baumannii; [5]", "result": 2, "unit": "fold"}, {"measurement": "MBC", "setting": "Acinetobacter baumannii; [6]", "result": 6.25, "unit": "µM"}, {"measurement": "MIC", "setting": "Acinetobacter baumannii; [6]", "result": 6.25, "unit": "µM"}, {"measurement": "MBC", "setting": "Acinetobacter baumannii; [7]", "result": 6.25, "unit": "µM"}, {"measurement": "MIC", "setting": "Acinetobacter baumannii; [7]", "result": 6.25, "unit": "µM"}, {"measurement": "MBC", "setting": "Acinetobacter baumannii; [8]", "result": 12.5, "unit": "µM"}, {"measurement": "MIC", "setting": "Acinetobacter baumannii; [8]", "result": 12.5, "unit": "µM"}, {"measurement": "MBC", "setting": "Acinetobacter baumannii; Acinetobacter baumannii, 1 h, agent pre-exposed to 100°C for 1 h", "result": "> 25", "unit": "µM"}, {"measurement": "MBC", "setting": "Acinetobacter baumannii; [9]", "result": "6.25 to 12.5", "unit": "µM"}, {"measurement": "MIC", "setting": "Acinetobacter baumannii; [9]", "result": 6.25, "unit": "µM"}, {"measurement": "MBC", "setting": "Acinetobacter baumannii; [10]", "result": "6.25 to 12.5", "unit": "µM"}, {"measurement": "MIC", "setting": "Acinetobacter baumannii; [10]", "result": 6.25, "unit": "µM"}, {"measurement": "MBC", "setting": "Acinetobacter baumannii; [11]", "result": 12.5, "unit": "µM"}, {"measurement": "MIC", "setting": "Acinetobacter baumannii; [11]", "result": 6.25, "unit": "µM"}, {"measurement": "MBC", "setting": "Acinetobacter baumannii; [12]", "result": 25, "unit": "µM"}, {"measurement": "MIC", "setting": "Acinetobacter baumannii; [12]", "result": 12.5, "unit": "µM"}, {"measurement": "MIC", "setting": "Acinetobacter baumannii; Acinetobacter baumannii, agent pre-exposed to 100°C for 1 h", "result": "> 25", "unit": "µM"}, {"measurement": "MIC", "setting": "E. aerogenes; Klebsiella aerogenes", "result": 0.39, "unit": "µM"}, {"measurement": "TP4-3 and meropenem combined MIC", "setting": "E. aerogenes; TP4-3 and M", "result": 0.097, "unit": "µM"}, {"measurement": "MIC", "setting": "NDM1 K. pneumoniae; Klebsiella pneumoniae", "result": 400, "unit": "µM"}, {"measurement": "TP4-3 and meropenem combined MIC", "setting": "NDM1 K. pneumoniae; TP4-3 and M", "result": 200, "unit": "µM"}, {"measurement": "MBC", "setting": "Salmonella enterica", "result": 6.25, "unit": "µM"}, {"measurement": "MIC", "setting": "Salmonella enterica", "result": "3.13 to 6.25", "unit": "µM"}, {"measurement": "net increase in the MIC", "setting": "A. baumannii [1]", "result": 53, "unit": "fold"}]}, {"smiles": "CC[C@H](C)[C@H](NC(=O)[C@@H](NC(=O)[C@@H](N)Cc1ccccc1)[C@@H](C)CC)C(=O)N[C@]1(C)CCCC=CCCC[C@](C)(C(=O)NCC(=O)N[C@@H](CC(C)C)C(=O)N[C@@H](Cc2ccccc2)C(=O)N[C@@H](CCCCN)C(=O)N[C@@H](CCCCN)C(=O)N[C@@H](CCCCN)C(=O)N[C@@H](C)C(=O)NCC(=O)N[C@@H](C)C(=O)N[C@]2(C)CCCC=CCCC[C@](C)(C(=O)N[C@H](C(=O)N[C@@H](CCCCN)C(=O)N[C@@H](CCCCN)C(=O)O)[C@@H](C)CC)NC(=O)[C@H](CCCCN)NC(=O)[C@H](CCCCN)NC(=O)[C@H](CCCCN)NC2=O)NC(=O)[C@H](CO)NC(=O)[C@H](CCCCN)NC(=O)[C@H](CCCCN)NC1=O", "note": "[TP4-3] (H-FII[R5]KKS[R5]GLFKKKAGA[R5]KKK[R5]IKK-OH; staple 4-8, 18-22; N-terminus and C-terminus assumed)", "values": [{"measurement": "reduction of activity", "setting": "Acinetobacter baumannii; 12 h pretreatment in 50% human serum", "result": 2, "unit": "fold"}, {"measurement": "reduction of activity", "setting": "Acinetobacter baumannii; [5]", "result": 4, "unit": "fold"}, {"measurement": "reduction of activity (MBC)", "setting": "Acinetobacter baumannii; in pH 6", "result": 4, "unit": "fold"}, {"measurement": "lower bactericidal potency", "setting": "Acinetobacter baumannii; media supplemented with CaCl2", "result": "≤ 8", "unit": "fold"}, {"measurement": "lower bactericidal potency", "setting": "Acinetobacter baumannii; media supplemented with MgCl2", "result": "up to 4 fold"}, {"measurement": "lowered bactericidal potency (MBC)", "setting": "Acinetobacter baumannii; media supplemented with NaCl, KCl, or NH4Cl vs non-supplemented medium", "result": "up to 2 fold"}, {"measurement": "MBC", "setting": "Acinetobacter baumannii; pH 6", "result": 12.5, "unit": "µM"}, {"measurement": "MIC", "setting": "Acinetobacter baumannii; pH 6", "result": 12.5, "unit": "µM"}, {"measurement": "MBC", "setting": "Acinetobacter baumannii; pH 7.4", "result": 3.13, "unit": "µM"}, {"measurement": "MIC", "setting": "Acinetobacter baumannii; pH 7.4", "result": 3.13, "unit": "µM"}, {"measurement": "MBC", "setting": "Acinetobacter baumannii; pH 8", "result": 3.13, "unit": "µM"}, {"measurement": "MIC", "setting": "Acinetobacter baumannii; pH 8", "result": 3.13, "unit": "µM"}, {"measurement": "MBC", "setting": "Acinetobacter baumannii; pH 10", "result": 3.13, "unit": "µM"}, {"measurement": "MIC", "setting": "Acinetobacter baumannii; pH 10", "result": 0.78, "unit": "µM"}, {"measurement": "TP4-3 and meropenem combined MIC", "setting": "E. aerogenes; TP4-3 and D", "result": 3.13, "unit": "µM"}, {"measurement": "TP4-3 and meropenem combined MIC", "setting": "E. aerogenes; TP4-3 and M", "result": 0.78, "unit": "µM"}, {"measurement": "MIC", "setting": "E. aerogenes", "result": 25, "unit": "µM"}, {"measurement": "cell death", "setting": "[2]", "result": "< 10", "unit": "%"}, {"measurement": "cell death", "setting": "[3]", "result": "< 10", "unit": "%"}, {"measurement": "cell death", "setting": "human kidney cell (HK-2)", "result": "< 10", "unit": "%"}, {"measurement": "TP4-3 and meropenem combined MIC", "setting": "NDM1 K. pneumoniae; TP4-3 and D", "result": 6.25, "unit": "µM"}, {"measurement": "TP4-3 and meropenem combined MIC", "setting": "NDM1 K. pneumoniae; TP4-3 and M", "result": 6.25, "unit": "µM"}, {"measurement": "MIC", "setting": "NDM1 K. pneumoniae; NDM1", "result": 25, "unit": "µM"}, {"measurement": "bacterial membrane architecture (SEM, TEM)", "setting": "A. baumannii [4]", "result": "significant membrane deformation"}, {"measurement": "net increase in the MIC", "setting": "A. baumannii [1]", "result": 5, "unit": "fold"}]}]}
